# According to ChEMBL document CHEMBL1201862, “PubChem BioAssay data set” (2004):
#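 These data come from cells grown in 96-well plates and exposed to compound for 48 hours at five concentrations. The concentration for 50% growth inhibition is given as GI50.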 Activity calls are given as the source filed them. Rule as the data show it: active = GI50 up to about 1.1 µM and inactive = higher.
# How the values were obtained:
# Assay in all cases: DTP human tumour cell line panel, 48 h
# MDA-MB-231 = system: MDA-MB-231
# SF-295 = system: SF-295
# KM12 = system: KM12
# RXF 393 = system: RXF 393
# NCI-H23 = system: NCI-H23
# HCT-15 = system: HCT-15
# EKVX = system: EKVX
# COLO 205 = system: COLO 205
# SF-268 = system: SF-268
# UACC-257 = system: UACC-257
# NCI-H522 = system: NCI-H522
# OVCAR-5 = system: OVCAR-5
# TK-10 = system: TK-10
# NCI/ADR-RES = system: NCI/ADR-RES
# CAKI-1 = system: CAKI-1
# A498 = system: A498
# IGROV-1 = system: IGROV-1
# ACHN = system: ACHN
# HL-60 = system: HL-60
SMILES,GI50 (MDA-MB-231),GI50 (SF-295),GI50 (KM12),GI50 (RXF 393),GI50 (NCI-H23),GI50 (HCT-15) [µM],GI50 (EKVX),GI50 (COLO 205),GI50 (SF-268),GI50 (UACC-257),GI50 (NCI-H522),GI50 (OVCAR-5),GI50 (TK-10),GI50 (NCI/ADR-RES),GI50 (CAKI-1),GI50 (A498),GI50 (IGROV-1),GI50 (ACHN),GI50 (HL-60)
C=C1C2C[C@@H]3O[C@H]4C[C@H]5O[C@@]6(C[C@@H]7O[C@]8(C[C@H](C)[C@@H]9O[C@@H]%10CC(CO)O[C@@H]%10C[C@@H]9O8)C[C@H](C)[C@@H]7O6)C[C@H]5O[C@H]4[C@H](C)[C@H]3OC(=O)C[C@H]3CC[C@@H]4OC5[C@H]6O[C@]7(CC[C@H]8CC(=C)[C@H](CC[C@@H](C[C@H]1C)O2)O8)CC6O[C@@H]5[C@@H](O7)[C@H]4O3 (some centres not stated),< 0.0001 µM (active),< 0.0001 µM (active),< 0.0001 µM (active),< 0.0001 µM (active),< 0.0001 µM (active),< 0.0001,< 0.0001 µM (active),< 0.0001 µM (active),< 0.0001 µM (active),< 0.0001 µM (active),< 0.0001 µM (active),< 0.0001 µM (active),< 0.0001 µM (active),< 0.0001 µM (active),< 0.0001 µM (active),0.000502 µM (active),< 0.0001 µM (active),< 0.0001 µM (active),
CC1OC(OC2C(OC(=O)[C@]34CCC(C)(C)CC3C3=CCC5[C@@]6(C)C[C@H](O)[C@H](OC7OC(COC8OC(CO)C(O)C(O)C8O)C(O)C(O)C7O)[C@@](C)(C(=O)O)C6CC[C@@]5(C)C3(C)CC4)OCC(O)C2O)C(O)C(O)C1OC1OCC(O)C(O)C1O (some centres not stated),,> 100 µM (inactive),> 100 µM (inactive),> 100 µM (inactive),> 100 µM (inactive),> 100,> 100 µM (inactive),> 100 µM (inactive),> 100 µM (inactive),> 100 µM (inactive),> 100 µM (inactive),> 100 µM (inactive),> 100 µM (inactive),,> 100 µM (inactive),> 100 µM (inactive),> 100 µM (inactive),> 100 µM (inactive),> 100 µM (inactive)
O=[N+]([O-])c1cc(I)cc(/C=N/NS(=O)(=O)c2ccc(F)cc2)c1O,,33.2 µM (inactive),25.5 µM (inactive),27 µM (inactive),20 µM (inactive),27.3,30.7 µM (inactive),18.3 µM (inactive),28.9 µM (inactive),25.2 µM (inactive),20.7 µM (inactive),39 µM (inactive),28.6 µM (inactive),,26.2 µM (inactive),36.1 µM (inactive),33.7 µM (inactive),30.7 µM (inactive),28.4 µM (inactive)
Nc1nc(N)c2cc(Sc3cccc(C(F)(F)F)c3)ccc2n1 [WR-159412],0.364 µM (active),0.656 µM (active),2.59 µM (inactive),,2.99 µM (inactive),0.499,3.56 µM (inactive),1.21 µM (inactive),2.22 µM (inactive),,2.7 µM (inactive),13 µM (inactive),10.1 µM (inactive),0.955 µM (active),1.17 µM (inactive),,0.708 µM (active),0.885 µM (active),1.62 µM (inactive)
CC(C)(C)CC(C)(C)c1ccc(OCCOCC[N+](C)(C)Cc2ccccc2)cc1 [BENZETHONIUM CHLORIDE],,11 µM (inactive),1.61 µM (inactive),3.11 µM (inactive),1.66 µM (inactive),20.5,4.2 µM (inactive),1.49 µM (inactive),1.94 µM (inactive),1.45 µM (inactive),1.66 µM (inactive),6.17 µM (inactive),3.64 µM (inactive),,10.1 µM (inactive),16.6 µM (inactive),1.52 µM (inactive),11.6 µM (inactive),0.883 µM (active)
O=[N+]([O-])c1ccc(-c2csc(=[N+]3CCCCC3)s2)cc1,,2.71 µM (inactive),4.13 µM (inactive),> 69.2 µM (inactive),4.41 µM (inactive),29.2,18 µM (inactive),2.26 µM (inactive),3.93 µM (inactive),2.08 µM (inactive),3.61 µM (inactive),9.75 µM (inactive),> 83.4 µM (inactive),,75.7 µM (inactive),2.18 µM (inactive),4.48 µM (inactive),40.6 µM (inactive),> 53.2 µM (inactive)
